Marks after values point to notes of the source that are not given here.
Tests used:
[1] = tested on: TNBS-induced colitis mice; assay: TNBS-induced UC (colitis) mouse model; assay type: in vivo; details: for Body weight / Colon weight: oral twice daily; for Body weight / Colon weight / Colon scores / Colon indices / Decrease rate of colon specific weight: 7 days; for Colon scores: histopathological score 0-4; for Colon indices: percentage of colon weight to body weight; for Decrease rate of colon specific weight: vs model control group
Method: 5% (w/v) TNBS solution was diluted with double-distilled water and mixed with 50% (v/v) ethanol in equal volume to have 1.5% (w/v) TNBS solution. In the model control group, the mice were anesthetized with 1 wt % pentobarbital solution at a dose of 0.05 ml/10 g body weight. After being anesthetized, the mice were administrated with 1.5% (w/v) TNBS solution at a dose of 0.1 ml/mouse by gently inserting stomach perfusion device to about 3 cm depth via anus and arriving at the colon, and the IBD was induced. In the saline group, the saline was gently injected into the colon at a dose of 0.1 ml/mouse. In the normal control group, 50% (v/v) ethanol was gently injected into the colon at a dose of 0.1 ml mouse.
After one week adaptive feeding, all animals were randomly divided into 5 groups according to body weight, 10 mice in one group: the normal control group, the model control group, the andrographolide low-dose group (20 mg/kg/d), the andrographolide high-dose group (40 mg/kg/d) and the positive control group (Sulfasalazine group, 300 mg/kg/d). Two hours after making model, the animals in each treating groups were orally administrated twice daily with the andrographolide and once daily in the positive control group. After successive administration for 7 days, the abdomen was opened 24 hours after the last administration to observe adhesion degree between the colon and other organs. The colon was separated and weighed.
1. Body weight: after making model, body weight was measured every day to observe the change in the animals.
2. Evaluation of inflammation: the abdomen was opened 24 hours after the last administration to observe adhesion degree between the colon and other organs. Every segment of the colon was taken out and weighed to calculate the percentage of the colon weight to body weight, as the colon index. The formula was presented as follows: Decrease rate of colon specific weight=(colon index of the model control group−colon index of the treatment group)/colon index of the model control group×100%
3. Histopathological examination: a part of the colon was taken to prepare the pathological section, and the standard for score was as follows: • 0 score, no inflammatory symptoms; • 1 score, low-grade inflammation with no structure change; • 2 score, low-grade leukocyte infiltration; • 3 score, high-grade leukocyte infiltration, high vascular density, crypt extension, thickened colon wall and superficial ulcer • 4 score, high-grade leukocyte infiltrating exceeding to mucous layer, crypt extension, decrease of goblet cell, high vascular density, thickened colon wall and extensive ulcer
SPSS11.5 software was used for analysis and the data were expressed as x±S. Variance analysis was used for comparison of significant difference among groups.

TNBS-induced UC rats = assay: TNBS-induced UC rat model, different administration routes; assay type: in vivo; details: for Gross morphological injury score / Ulcer ratio: 5 days
Excerpt: 4 Dose Designing and Grouping • 4.1 Grouping: quarantine-qualified 84 rats were all used for making UC model. The successful rats were randomly divided into 6 groups: the model control group, the positive control group, the andrographolide low-dose intragastric group, the andrographolide high-dose intragastric group, the andrographolide low-dose intracolonical group and the andrographolide high-dose intracolonical group, 14 rats per group. • 4.2 Dose: the same doses were adopted in both intragastric and intracolonical groups. Animals were not treated in the model control group, the positive control group (mesalazine enteric tablet, 420 mg·kg^−1·d^−1), the andrographolide low-dose intragastric group (30 mg·kg^−1·d^−1), the andrographolide high-dose intragastric group (90 mg·kg^−1·d^−1), the andrographolide low-dose intracolonical group (30 mg·kg^−1·d^−1) and the andrographolide high-dose intracolonical group (90 mg·kg^−1·d^−1).
5. Method • 5.1 Method of making UC model: the rats were anesthetized. 2 mm-diameter latex tube was gently inserted into the position about 8 cm inside the body of the rats through anus, and TNBS in 50% ethanol solution (TNBS 125 mg/kg) was injected into intestinal lumen with an injector by one time, 0.5 ml/rat. The tail of the rat was lifted up for 30 s to make the model making agent (i.e., TNBS) fully infiltrate into the intestinal lumen of the rats. • 5.2 Method of administration: the same dose (1 mL/100 g) was adopted in both intragastric and intracolonical administration, once daily for consecutive 5 days. • 5.3 Method for sampling in experiment: 2 hours after the last administration, the rats were killed by cervical vertebra dislocation and abdomen was opened to separate the colon. Along mesenteric side, the intestinal lumen was cut and rinsed with 4° C. normal saline and spread on a plastic plate. • 5.4 Scoring method for colon gross morphological injury was referred to scoring method for mucosal injury (Bjelkengren G, Aronsen K F, Augustsson N E, etc. Radioprotective effect of local administration of lysine vasopressin and triglycyl lysine vasopressin on the rectal mucosa in rats[J]. Acta Oncol, 1995, 34(4):487-92) to record the mucosal injury score: dotted line blooding and small red spots (<1 mm): 1 score, piece blooding and big red spots (=1 mm): 3 score; and erosion and ulcer: 5 score.
Data were expressed as mean+standard deviation (x±S). All numerical variables were analyzed with SPSS13.0 software by one-way ANOVA. T-test analysis was used for inter-group comparison.

[2] = andrographolide high-dose 40 mg/kg/d
[3] = andrographolide low-dose 20 mg/kg/d
[4] = andrographolide high-dose 90 mg/kg, intracolonical
[5] = andrographolide high-dose 90 mg/kg, intragastric
[6] = andrographolide low-dose 30 mg/kg, intracolonical
[7] = andrographolide low-dose 30 mg/kg, intragastric

## C=C1CC[C@@H]2[C@](C)(CO)[C@H](O)CC[C@@]2(C)[C@@H]1C/C=C1/C(=O)OC[C@H]1O [Andrographolide]
[1]; FIG. 1, treated groups
  Body weight increase compared with the model control group: increased faster than that in the model control group
[1]; [2]
  Body weight: 20.95 ± 1.09 g
  Colon weight: 0.29 ± 0.09 g
  Colon scores: 1.8**
  Colon indices: 1.38 ± 0.46
  Decrease rate of colon specific weight: 58.96%
[1]; [3]
  Body weight: 19.95 ± 2.05 g
  Colon weight: 0.43 ± 0.12 g
  Colon scores: 3.2
  Colon indices: 2.24 ± 0.90
  Decrease rate of colon specific weight: 33.20%
[1]; treated groups, after 7 days
  Intestinal elasticity compared with the model control group: higher than that in the model control group
TNBS-induced UC rats; [4]
  Gross morphological injury score: 1.96 ± 1.09
  Ulcer ratio: 17.21** %
TNBS-induced UC rats; [5]
  Gross morphological injury score: 3.25 ± 1.98
  Ulcer ratio: 29.21** %
TNBS-induced UC rats; andrographolide high-dose intragastric and intracolonical groups, 90 mg/kg
  Formless watery stool symptoms, course: totally disappeared on the 4th˜5th days
TNBS-induced UC rats; [6]
  Gross morphological injury score: 6.53 ± 2.12
  Ulcer ratio: 38.54* %
TNBS-induced UC rats; [7]
  Gross morphological injury score: 6.71 ± 2.57
  Ulcer ratio: 45.69* %

— patent US9889093B2, “Application of andrographolide in the preparation of a pharmaceutical for treatment of inflammatory bowel disease, andrographolide enteric targeting micropellet, and method for preparation thereof” (TASLY PHARMACEUTICAL GROUP CO., LTD., priority 2013, dated 2018)
